According to PubChem BioAssay (NCI):
“And” between values parts separate entries of the source, which are not always exact repeats. Identical values can stand only once.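 Protocol summary: plate cells (96-well), add compound at 5 concentrations, incubate 48 h, interpolate endpoints linearly. GI50: concentration for 50% inhibition of growth. Definition used: TGI = concentration required for complete inhibition of growth.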

Tests used:
Assay in all cases: NCI tumour cell line growth inhibition, 48 h
[1] = system: A498 renal
[2] = system: HCC-2998 colon
[3] = system: K-562 leukemia
[4] = system: OVCAR-4 ovarian
[5] = system: SF-539 CNS
[6] = system: SK-MEL-2 melanoma
[7] = system: SK-MEL-5 melanoma
[8] = system: SN12C renal
[9] = system: T-47D breast
[10] = system: UO-31 renal

| Compound | TGI [1] | TGI [2] | TGI [3] | TGI [4] | TGI [5] | TGI [6] | TGI [7] | TGI [8] | TGI [9] | TGI [10] | GI50 [1] | GI50 [2] | GI50 [3] | GI50 [4] | GI50 [5] | GI50 [6] | GI50 [7] | GI50 [8] | GI50 [9] | GI50 [10] |
| --- | --- | --- | --- | --- | --- | --- | --- | --- | --- | --- | --- | --- | --- | --- | --- | --- | --- | --- | --- | --- |
| Cc1ccccc1NC(=S)N/N=C(/c1ccccc1)c1ccccn1 | 10.2 µM | 14.3 µM | 4.17 µM | 20.8 µM | 7.76 µM | 6.9 µM | 3.93 µM | 10 µM | 12.4 µM | 4.25 µM |  |  |  |  |  |  |  |  |  |  |
| Cc1ccc(S(=O)(=Nc2ccccc2)C(C(C)C)C(C)(C)Cl)cc1 (centres undefined) | > 50 µM | > 50 µM | > 50 µM | > 50 µM | > 50 µM | 43.9 µM | 16.7 µM | > 50 µM | > 50 µM | > 50 µM |  |  |  |  |  |  |  |  |  |  |
| CCCCCCC(CCl)c1sc(-c2csc(CCNC(=O)OC(C)(C)C)n2)nc1C(=O)OC (centres undefined) | > 100 µM | 62.6 µM | > 100 µM | 78 µM | 44.4 µM | 29.6 µM | 16.1 µM | 38.9 µM | 13 µM | 67.8 µM |  |  |  |  |  |  |  |  |  |  |
| CCN(CC)C(=S)SNCCc1ccc(S(N)(=O)=O)cc1 | > 65.1 µM | 50.6 µM | > 100 µM | 35.6 µM | 28.8 µM | > 86.7 µM | 24.4 µM | 27.2 µM | 45.1 µM | 27 µM |  |  |  |  |  |  |  |  |  |  |
| C1OCN2c3nonc3N3COCN4c5nonc5N1C2C43 (centres undefined) | > 100 µM | > 100 µM | > 100 µM | > 100 µM | > 100 µM | > 100 µM | > 100 µM | > 100 µM | > 100 µM | > 100 µM |  |  |  |  |  |  |  |  |  |  |
| Oc1c(I)cc(I)cc1CNCCCN(Cc1ccccn1)Cc1ccccn1 | 1.32 µM | 1.91 µM | 50 µM | 2.31 µM | 1.61 µM | 2.91 µM | 1.59 µM | 2.12 µM | 5.83 µM | 1.46 µM | 0.661 µM | 0.983 µM | 1.71 µM | 1.02 µM | 0.863 µM | 1.18 µM | 0.886 µM | 0.99 µM | 1.49 µM | 0.786 µM |
| Cc1cc(=O)c2c(O)c3c(O)cc(O)c4c5c(O)cc(O)c6c(O)c7c(=O)cc(C)c8c1c2c(c34)c(c65)c78 | > 100 µM and 75.6 µM | > 100 µM | > 100 µM | > 100 µM | > 100 µM | > 100 µM and 94 µM | > 100 µM | > 100 µM | > 100 µM | > 100 µM and 65.9 µM | 64.9 µM and 28.9 µM | > 100 µM and 28.3 µM |  |  | > 100 µM | > 100 µM and 37.3 µM |  |  |  | > 100 µM and 25.5 µM |
| COC(=O)C1=C(OC(=O)/C(=C/c2ccc(Cl)cc2)c2ccccc2)C(C(=O)OC)[C@@]2(O)[C@@H](C(=O)OC)[C@H](C)C[C@@H]1[C@@H]2C(=O)OC (some centres undefined) | > 100 µM | > 100 µM | > 100 µM | > 100 µM | > 100 µM | > 100 µM | > 100 µM | > 100 µM | > 100 µM | > 100 µM |  |  |  |  |  |  |  |  |  |  |
| Cc1ccccc1NC(=S)N=Nc1c(O)[nH]c2ccccc12 | > 100 µM | > 100 µM | > 100 µM | > 100 µM | > 100 µM | > 100 µM | > 100 µM | > 100 µM | > 100 µM | > 100 µM |  |  |  |  |  |  |  |  |  |  |
| N=C1N=C(N)c2cc3c(cc21)SCCSCCCSCCS3 | > 69.6 µM | 27.8 µM | 31.8 µM | 56.5 µM | > 54.6 µM | 37.7 µM | 31.7 µM | 33.2 µM | 69.1 µM | > 100 µM |  |  |  |  |  |  |  |  |  |  |
| CC(=O)OCC1OC(OCC2OC(N3C(=S)N[C@H]([C@@H](O)[C@H](O)[C@H](O)CO)[C@H]3O)C(OC(C)=O)C(OC(C)=O)C2OC(C)=O)C(OC(C)=O)C(OC(C)=O)C1OC(C)=O (some centres undefined) | > 100 µM | > 100 µM | > 100 µM | > 100 µM | > 100 µM | > 100 µM | > 100 µM | > 100 µM | > 100 µM | > 100 µM |  |  |  |  |  |  |  |  |  |  |
| CC1(C)Oc2ccc(Cl)cc2C12CC2 | 29.9 µM | 30.6 µM | 39.2 µM | 29.6 µM | > 100 µM | 33.4 µM | 38.6 µM | 33.6 µM | 73.8 µM | 30.8 µM |  |  |  |  |  |  |  |  |  |  |
| CCOC(OCC)C(CCc1ccccc1)c1c(N)nc(N)[nH]c1=O (centres undefined) | > 100 µM | > 100 µM | 84.7 µM | > 100 µM | > 100 µM | > 100 µM | > 100 µM | > 100 µM | > 100 µM | > 100 µM |  |  |  |  |  |  |  |  |  |  |
| Brc1cccc(C2(CCCC3(c4cccc(Br)n4)OCCO3)OCCO2)n1 | > 100 µM | > 100 µM | > 100 µM | > 100 µM | > 100 µM | > 100 µM | > 100 µM | > 100 µM | > 100 µM | > 100 µM |  |  |  |  |  |  |  |  |  |  |
| CC(=O)O[C@H]1CC[C@@]2(C)C(=CC[C@@H]3[C@@H]2CC[C@]2(C)c4nc(N)c(C#N)cc4C[C@@H]32)C1 | > 100 µM | > 100 µM | > 100 µM | > 86.9 µM | 64 µM | > 100 µM | 43.4 µM | > 100 µM | > 96.6 µM | > 100 µM |  |  |  |  |  |  |  |  |  |  |
| O=C(c1ccc(Cl)cc1)N(Cc1cccnc1)C(=S)N(Cc1cccnc1)C(=O)c1ccc(Cl)cc1 | 91.5 µM | 61.3 µM | > 100 µM | 79.7 µM | 50.4 µM | 49 µM | 90.1 µM | 48.1 µM | > 100 µM | 98.4 µM |  |  |  |  |  |  |  |  |  |  |
| COCC(=O)[C@]1(O)Cc2c(O)c3c(c(O)c2[C@@H](OC2CC(N)C(O)C(C)O2)C1)C(=O)c1c(OC)cccc1C3=O (some centres undefined) | 0.624 µM | 0.691 µM | 0.785 µM | 1.56 µM | 0.312 µM | 0.259 µM | 0.228 µM | 3.42 µM | 0.737 µM | 0.231 µM |  |  |  |  |  |  |  |  |  |  |
| O=C1c2ccccc2C2(c3ccc(Cl)cc3)NCc3ccccc3CN12 (centres undefined) | 42.8 µM | 45.6 µM | > 100 µM | 79.3 µM | 29.8 µM | 29.5 µM | 29.5 µM | > 100 µM | 49.9 µM | 78.1 µM |  |  |  |  |  |  |  |  |  |  |
| CCCCCC(/C=C/[C@@H]1CC(=O)C[C@H]1O[Si](C)(C)C(C)(C)C)OCOCCOC (some centres undefined) | 18.1 µM | 29.8 µM | 6.43 µM | 26.3 µM | 5.98 µM | 12.6 µM | 9.33 µM | 24.1 µM | 44 µM | 6.44 µM |  |  |  |  |  |  |  |  |  |  |
| c1ccc([C@H]2CN3CCSC3=N2)cc1 | > 100 µM | > 100 µM | > 100 µM | > 100 µM | > 100 µM | > 100 µM | > 100 µM | > 100 µM | > 100 µM | > 100 µM |  |  |  |  |  |  |  |  |  |  |
| Cc1ccc(S(=O)(=O)n2cc(-c3cnc(N)c(Br)n3)c3ccccc32)cc1 | > 24.8 µM | > 100 µM | > 100 µM | > 100 µM | > 23.3 µM | > 100 µM | 41.4 µM | 11.9 µM | > 100 µM | > 100 µM |  |  |  |  |  |  |  |  |  |  |
| COc1ccc2[nH]c(C(=O)N3CC(CCl)c4ccc([N+](=O)[O-])cc43)cc2c1 (centres undefined) | > 100 µM | > 100 µM | > 100 µM | > 100 µM | > 100 µM | > 100 µM | > 100 µM | > 100 µM | > 100 µM | > 100 µM |  |  |  |  |  |  |  |  |  |  |
| COc1cc2c3c(cc(Cl)nc3c1OC)C(O)(CC(C)=O)C(=O)N2 (centres undefined) | 33.2 µM | > 60.5 µM | > 95 µM | 32.4 µM | > 100 µM | 45.7 µM | > 56 µM | 36.1 µM | > 100 µM | > 55.6 µM |  |  |  |  |  |  |  |  |  |  |
| O=c1c2cc(-c3ccccc3)cnc2sn1-c1ccc([N+](=O)[O-])cc1 | > 100 µM | > 100 µM | > 100 µM | > 100 µM | > 100 µM | > 100 µM |  | > 100 µM | > 100 µM | > 100 µM |  |  |  |  |  |  |  |  |  |  |
| C[C@H](CC[C@@H](O)C(C)(C)O)[C@H]1CC[C@@]2(C)[C@@H]3CC=C4[C@@H](CC[C@H](OC5OC(CO)C(O)C(O)C5O)C4(C)C)[C@]3(C)C(=O)C[C@]12C (some centres undefined) | > 100 µM | > 100 µM | > 100 µM | > 100 µM | > 100 µM | 69.6 µM | > 100 µM | > 100 µM | > 100 µM | > 100 µM |  |  |  |  |  |  |  |  |  |  |
